Here are results for 88 compounds from ChEMBL document CHEMBL5604063, “ASAP - DENV-2 NS2B-NS3 protease fluorescence dose response” (2024).

What is called IC50 is the concentration that inhibits the measured activity by half.

Where “and” joins values, the source holds several entries; their conditions need not be identical. Equal values may be shown once.

This experiment addresses Genome polyprotein (dengue virus type 2, UniProt P29990). It is filed as functional, Thailand/16681/1984.

Genome polyprotein, sequence (P29990 1346-1475 limits assumed): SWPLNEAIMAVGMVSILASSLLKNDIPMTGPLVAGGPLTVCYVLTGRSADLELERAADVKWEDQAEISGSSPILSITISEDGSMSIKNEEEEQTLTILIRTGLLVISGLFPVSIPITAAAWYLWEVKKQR
Genome polyprotein, sequence (P29990 1476-2093 limits assumed): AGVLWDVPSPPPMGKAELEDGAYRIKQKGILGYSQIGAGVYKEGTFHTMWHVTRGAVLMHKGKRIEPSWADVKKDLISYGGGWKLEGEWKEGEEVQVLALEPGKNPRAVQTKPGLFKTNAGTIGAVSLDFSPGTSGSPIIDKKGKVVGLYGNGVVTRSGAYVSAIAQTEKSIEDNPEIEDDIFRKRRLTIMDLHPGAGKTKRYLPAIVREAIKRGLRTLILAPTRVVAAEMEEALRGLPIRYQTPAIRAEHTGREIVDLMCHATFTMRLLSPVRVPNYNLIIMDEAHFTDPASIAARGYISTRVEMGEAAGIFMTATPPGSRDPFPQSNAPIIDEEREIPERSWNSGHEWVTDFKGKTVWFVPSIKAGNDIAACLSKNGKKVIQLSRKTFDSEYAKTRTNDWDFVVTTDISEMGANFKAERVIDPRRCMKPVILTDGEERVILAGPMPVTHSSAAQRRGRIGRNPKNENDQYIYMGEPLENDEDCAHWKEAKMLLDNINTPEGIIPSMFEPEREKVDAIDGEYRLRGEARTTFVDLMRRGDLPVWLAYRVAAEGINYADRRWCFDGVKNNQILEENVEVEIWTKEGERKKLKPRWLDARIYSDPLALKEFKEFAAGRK

In the case of `O=C(Nc1cc(Cl)cc(C(=O)N[C@]2(c3nnn[nH]3)CCOC2)c1)OCc1ccccc1`, the IC50 is greater than 99.5 µM.

`NCCCOc1cc2c(c(-c3ccc(N)nc3)c1)CCB(O)O2` showed an IC50 greater than 99.5 µM.

`CCCC[C@H](N)C(=O)N[C@@H](C(=O)NCc1ccc(C(N)=O)cc1)c1ccc(OCc2ccccc2)cc1`: the IC50 was greater than 99.5 µM.

In turn, `O=Cc1ccc(N2CCC(C(=O)N3CCN(c4cccc(O)c4)CC3)CC2)cc1` yielded an IC50 of 78.2 µM.

For `Cc1ccc(CNC(=O)[C@@H](NC(=O)OCc2ccccc2)c2ccc(OCc3ccccc3)cc2)cn1`, the IC50 was greater than 99.5 µM.

`NCc1cccc(NC(=O)C[C@@H](NC(=O)OCc2ccccc2)C2CCCCC2)c1`: the IC50 is 45.2 µM and 44.4 µM.

As to `CC(C)(C)Oc1ccc(S(=O)(=O)Nc2ccc(Cl)cc2C(=O)O)cc1`, the 50% inhibitory concentration (IC50) is greater than 99.5 µM.

`C[C@H]1CN(C(=O)c2cccc3c(CN)cccc23)CCC12CCNCC2` showed an IC50 greater than 99.5 µM.

In the case of `O=C(O)c1cc(Cl)ccc1NS(=O)(=O)c1ccc(NC2CCNCC2)nc1`, the concentration for half-maximal inhibition (IC50) was greater than 99.5 µM.

Compound `Cc1ccc([C@@H](NC(=O)OCc2ccccc2)C(=O)Nc2cccc(CN)c2)cc1C` had an IC50 greater than 99.5 µM.

`O=S(=O)(c1ccc(Oc2ccccc2Cl)cc1)n1ccc2cc(Cl)ccc21`: the IC50 is greater than 99.5 µM.

`O=C(Nc1ccc2c(c1)CNC2)c1cc(F)c2[nH]nnc2c1`: the IC50 was greater than 99.5 µM.

The compound `CS(=O)(=O)NC(=O)c1cc(Cl)ccc1NS(=O)(=O)c1ccc(Oc2ccccc2Cl)cc1` showed an IC50 of 12.2 µM.

In the case of `CC[C@H]1CCN(C(=O)c2cc(Cl)ccc2NS(=O)(=O)c2ccc(Oc3ccccc3Cl)cc2)C1`, the IC50 was greater than 99.5 µM.

As to `CC(C)N1CCc2nc(NC(=O)[C@H](NC(=O)OCc3ccccc3)c3ccc(OCc4ccccc4)cc3)sc2C1`, the IC50 is greater than 99.5 µM.

`NCc1cccc(NC(=O)c2cc(NC(=O)OCc3ccccc3)cc(Cl)c2Cl)c1` showed an IC50 of 87.3 µM. This counts as double-digit micromolar.

Turning to `Cn1cc(-c2ccc([C@@H](NC(=O)OCc3ccccc3)C(=O)Nc3cccc(CN)c3)cc2)ccc1=O`, the IC50 is greater than 99.5 µM.

Consider `CCn1cc(C(=O)Nc2ccccc2)nc(N2CC[C@@H](CO)C2)c1=O`, for which the IC50 is greater than 99.5 µM.

Take `CCn1cc(-c2ccccc2C(=O)OC)nc(N2CC[C@@H](CO)C2)c1=O`: the IC50 is greater than 99.5 µM.

`Cc1ccc2cccc(NC(=O)C3CCN(c4ccc(C=O)cc4)CC3)c2n1` gave an IC50 of 22.4 µM.

Regarding `CC[C@@H](C)c1nc(C)cc(N2CCC(n3ncc(N)c3C(F)(F)F)CC2)n1`, the 50% inhibitory concentration (IC50) was greater than 99.5 µM.

`CC(C)(C)c1cc(N2CCN(c3cccc4[nH]ncc34)CC2)nc(C(=O)O)n1`: the IC50 is greater than 99.5 µM.

Consider `O=C(N[C@@H](C(=O)NC1CCCCC1)c1ccc(OCc2ccccc2)cc1)OCc1ccccc1`, for which the concentration for half-maximal inhibition (IC50) was greater than 99.5 µM.

For `O=C(O)c1cc2cc(-c3nccc(C(F)F)n3)ccc2[nH]1`, the IC50 was greater than 99.5 µM.

In turn, `CNC(=O)c1cnncc1NS(=O)(=O)c1ccc(Oc2ccccc2Cl)cc1` gave a 50% inhibitory concentration (IC50) greater than 99.5 µM.

With `NCc1cc(S(=O)(=O)Nc2ccc(Cl)cc2C(=O)NCC(F)(F)F)ccc1Oc1ccccc1`, the IC50 is greater than 99.5 µM.

Regarding `Cn1nc2c(c1NC(=O)[C@@H](NC(=O)OCc1ccccc1)c1ccc(OCc3ccccc3)cc1)CNC2`, the IC50 is greater than 99.5 µM.

Turning to `Cc1cc(CN(C)C)cc(NC(=O)[C@H](NC(=O)OCc2ccccc2)c2ccc(OCc3ccccc3)cc2)c1`, the IC50 was greater than 99.5 µM.

`O=C1Cc2c(cc(F)cc2C(=O)Nc2cc([C@H]3CCOC3)ccn2)N1` returned an IC50 greater than 99.5 µM.

Take `COc1n[nH]cc1CN1CCC(c2nc3ccccc3s2)CC1`: the IC50 was greater than 99.5 µM.

`CCNC(=O)Nc1cc(Cl)cc(C(=O)Nc2cccc(CN)c2)c1` gave an IC50 greater than 99.5 µM.

In the case of `Cc1ncc(-c2ccc([C@@H](NC(=O)OCc3ccccc3)C(=O)Nc3cccc(CN)c3)cc2)s1`, the 50% inhibitory concentration (IC50) was found to be 29.4 µM.

Turning to `O=C(NCC(F)(F)F)c1cc(Cl)c(F)cc1NS(=O)(=O)c1ccc(Oc2ccccc2Cl)cc1`, 5.18 µM corresponded to half-maximal inhibition (IC50).

Compound `CS(=O)(=O)c1ccc(N2CCNCC2)cc1NC(=O)c1cccc2ncccc12` gave an IC50 greater than 99.5 µM.

In the case of `COC1CN(C(=O)c2cc(Cl)ccc2NS(=O)(=O)c2ccc(Oc3ccccc3Cl)cc2)C1`, the IC50 is greater than 99.5 µM.

Compound `O=C(O)c1cc(Cl)ccc1NS(=O)(=O)c1ccc(-c2cncs2)cc1` came in with a concentration for half-maximal inhibition (IC50) of 75.3 µM.

In the case of `CN(c1ncnc(-c2ccsc2C=O)n1)C1CCNCC1`, the half-maximal inhibitory concentration (IC50) was greater than 99.5 µM.

`O=C(N[C@H](C(=O)NCc1cccc(CC(F)(F)F)c1)c1ccc(OCc2ccccc2)cc1)OCc1ccccc1`: the half-maximal inhibitory concentration (IC50) is greater than 99.5 µM.

`Cc1cccc(-c2ccc([C@@H](NC(=O)OCc3ccccc3)C(=O)Nc3cccc(CN)c3)cc2)c1`: the IC50 worked out at 9.31 µM.

For `CCn1c(=O)c(N2CCC[C@H]2CN2CCCC2)nc2ccccc21`, the half-maximal inhibitory concentration (IC50) is greater than 99.5 µM.

Turning to `CCn1ccnc(N2CC[C@@H](CC#N)C2)c1=O`, the half-maximal inhibitory concentration (IC50) was greater than 99.5 µM.

On to `NCc1cc(S(=O)(=O)Nc2ccc(Cl)cc2C(=O)O)ccc1Oc1ccccc1`, for which the half-inhibitory concentration (IC50) was greater than 99.5 µM.

Turning to `O=C(NCc1cocn1)c1cc(Cl)ccc1NS(=O)(=O)c1ccc(Oc2ccccc2Cl)cc1`, half-maximal inhibition (IC50) was put at 24.7 µM.

With `Cc1c(C(F)(F)F)n[nH]c1CN1CCC(c2cscn2)CC1`, the half-maximal inhibitory concentration (IC50) is greater than 99.5 µM.

Regarding `O=C(c1cc(Cl)ccc1NS(=O)(=O)c1ccc(Oc2ccccc2Cl)cc1)N1CCC[C@@H]1CO`, the IC50 was 62.7 µM.

Turning to `[O-][S@@+](Cc1nc(-c2cccs2)no1)c1cccs1`, the IC50 is greater than 99.5 µM.

On to `COc1c(C)cc(C(=O)Nc2cccc(CN)c2)cc1NC(=O)OCc1ccccc1`, for which the concentration for half-maximal inhibition (IC50) is greater than 99.5 µM.

In turn, `O=C(NCc1ccco1)c1csc(Br)c1` gave a concentration for half-maximal inhibition (IC50) greater than 99.5 µM.

In turn, `O=C(NCC1CC1)c1cc(Cl)cc(NS(=O)(=O)c2ccc(Oc3ccccc3Cl)cc2)c1` displayed an IC50 of 23.5 µM.

On to `CCn1c(=O)c(N2C[C@H]3CCC[C@H]2C3)nc2ccccc21`, for which the IC50 is greater than 99.5 µM.

Compound `NCc1cc(Cl)ccc1NS(=O)(=O)c1ccc(Oc2ccccc2Cl)cc1` yielded a half-inhibitory concentration (IC50) greater than 99.5 µM.

Turning to `NCc1cccc(NC(=O)[C@H](NS(=O)(=O)C2CCCCC2)c2ccc(OCc3ccccc3)cc2)c1`, the half-inhibitory concentration (IC50) was greater than 99.5 µM.

Regarding `O=C(NCC1CCCCC1)[C@H]1CCCN1C(=O)Nc1ccc2c(c1)CNC2`, the IC50 was greater than 99.5 µM.

Consider `CCn1cc(-c2ccc3ocnc3c2)nc(N2CC[C@@H](CO)C2)c1=O`, for which the IC50 was greater than 99.5 µM.

With `NCc1cccc(NC(=O)c2cc(Br)cc(NC(=O)OCc3ccccc3)c2)c1`, half-maximal inhibition (IC50) was put at 54.3 µM.

Turning to `Cc1ccc(NC(=O)OC(C)(C)C)c2[nH]cc(CN3CCC(c4cscn4)CC3)c12`, the IC50 is greater than 99.5 µM.

`NCc1ccc2c(c1)N(C(=O)[C@@H](NC(=O)OCc1ccccc1)c1ccc(OCc3ccccc3)cc1)CC2` gave an IC50 greater than 99.5 µM.

`C[C@@H]1C[C@H](NS(=O)(=O)c2ccc(Cl)cc2C(=O)O)C[C@H](C)N1Cc1ccccc1` came in with an IC50 greater than 99.5 µM.

On to `O=S(=O)(Nc1ccc(Cl)cc1CN(CC1CC1)CC1CC1)c1ccc(Oc2ccccc2Cl)cc1`, for which the midpoint of inhibition, the IC50, lay at 67.1 µM.

As to `CN(C)Cc1nnc(NC(=O)[C@@H](NC(=O)OCc2ccccc2)c2ccc(OCc3ccccc3)cc2)s1`, the IC50 is greater than 99.5 µM.

In turn, `CN(C)c1cc(-c2ccc(S(=O)(=O)Nc3ccc(Cl)cc3C(=O)O)cc2)ccn1` gave an IC50 of 87.6 µM.

Turning to `CC(C)(C)c1ncc(-c2ccc([C@@H](NC(=O)OCc3ccccc3)C(=O)Nc3cccc(CN)c3)cc2)o1`, the IC50 was greater than 99.5 µM.

Compound `NC(=O)c1ccccc1NS(=O)(=O)c1ccc(Oc2ccccc2Cl)cc1` registered an IC50 greater than 99.5 µM.

The compound `COc1ccc(S(=O)(=O)Nc2cc(F)c(Cl)cc2C(=O)O)cc1` displayed an IC50 greater than 99.5 µM.

Compound `NCc1cccc(NC(=O)CN2CCN(C(=O)OCc3ccccc3)CC2)c1` registered an IC50 greater than 99.5 µM.

In turn, `O=C(O)c1cc(F)c(F)cc1NS(=O)(=O)c1ccc(Oc2ccccc2Cl)cc1` displayed an IC50 of 11.2 µM.

In the case of `CCC(C)(C)C(=O)N[C@H](C(=O)Nc1cccc(CN)c1)c1ccc(OCc2ccccc2)cc1`, the IC50 is greater than 99.5 µM.

Turning to `O=C(O)c1cc(Cl)ccc1NS(=O)(=O)c1ccc(OCc2ncccn2)cc1`, the IC50 was greater than 99.5 µM.

Turning to `Clc1ccc2[nH]ncc2c1[C@@H]1C[C@H]1c1ccc2c(c1)CNC2`, the half-maximal inhibitory concentration (IC50) is greater than 99.5 µM.

Regarding `COC(=O)c1cc(Cl)ccc1NS(=O)(=O)c1ccc(Oc2ccccc2Cl)nc1`, the half-maximal inhibitory concentration (IC50) was greater than 99.5 µM.

The compound `CCS(=O)(=O)N[C@@H](C(=O)Nc1cccc(CN)c1)c1ccc(OCc2ccccc2)cc1` returned a half-maximal inhibitory concentration (IC50) greater than 99.5 µM.

Consider `COc1ccc(NS(=O)(=O)c2ccc(Cl)cc2C(=O)O)cc1OC1CCCC1`, for which the 50% inhibitory concentration (IC50) is greater than 99.5 µM.

The compound `NCc1cccc(NC(=O)[C@H](NC(=O)OCc2ccccc2)C2CCCCC2)c1` registered an IC50 greater than 99.5 µM.

`Cn1cc(CCOc2ccc([C@@H](NC(=O)OCc3ccccc3)C(=O)Nc3cccc(CN)c3)cc2)nn1` returned an IC50 greater than 99.5 µM.

`CCCC[C@H](NC(C)=O)C(=O)N[C@H](C(=O)NCc1ccc(CN)cc1)c1ccccc1` had an IC50 greater than 99.5 µM.

As for `CC(C)Oc1ccccc1C(=O)N[C@H](C(=O)Nc1cccc(CN)c1)c1ccc(OCc2ccccc2)cc1`, the IC50 was 74.2 µM.

In turn, `Cc1ccc(CN(C)C)cc1NC(=O)[C@@H](NC(=O)OCc1ccccc1)c1ccc(OCc2ccccc2)cc1` had a 50% inhibitory concentration (IC50) greater than 99.5 µM.

Regarding `NCc1cccc(NC(=O)[C@@H]2CCC[C@H](NC(=O)OCc3ccccc3)C2)c1`, the IC50 is greater than 99.5 µM.

Compound `Cn1cc(CN2CCC(c3c[nH]c4cccnc34)CC2)c2ccccc21` came in with an IC50 greater than 99.5 µM.

`O=C1OCc2ccc(NC(=O)c3cc(F)cc4[nH]ncc34)cc21` yielded an IC50 greater than 99.5 µM.

Compound `N[C@H]1CC[C@H](CNC(=O)[C@@H](NC(=O)OCc2ccccc2)c2ccc(OCc3ccccc3)cc2)CC1` came in with an IC50 greater than 99.5 µM.

Compound `CCn1c(=O)c(N2CC[C@]3(CCCN(C)C3)C2)nc2ccccc21` yielded an IC50 greater than 99.5 µM.

`O=C(N[C@@H](C(=O)Nc1nc2c(s1)CNC2)c1ccc(OCc2ccccc2)cc1)OCc1ccccc1` had an IC50 greater than 99.5 µM.

`O=C(O)c1ccsc1NS(=O)(=O)c1ccc(Oc2ccccc2Cl)cc1` had an IC50 of 20.1 µM.

The compound `NCc1cccc(NC(=O)[C@@H](NS(=O)(=O)c2ccccn2)c2ccc(OCc3ccccc3)cc2)c1` showed an IC50 greater than 99.5 µM.

As for `O=C1CCc2cc(NC(=O)c3cc(Cl)cc4[nH]ncc34)ccc2N1`, the IC50 was greater than 99.5 µM.

In turn, `CCn1c(=O)c(N2CC[C@@]23CCN(C)C3)nc2ccccc21` had an IC50 greater than 99.5 µM.

`CCn1nc(C)c(CN(C)Cc2ccc3c(c2)CCNCC3)c1C`: the IC50 was greater than 99.5 µM.
